Measured values taken from patent publication US20080152735A1, “Herbal Extract Having Anti- Influenza Virus Activity and Preparation of Same” (NATIONAL DEFENSE MEDICAL CENTER, priority 2006, published 2008).
Like-named read-outs stand apart in the source and are kept apart here.

Tests used:
[1] = system: neuraminidase (NA) of influenza virus; type: biochemical; details: for FU/min (neuraminidase enzymatic activity in presence of medicament): kit positive control 0.42 FU/min; for activity relative to that of Tamiflu: same dosage 0.5 mg/mL, ratio of FU/min values
influenza virus (H1N1) = assay: in vitro anti-influenza virus test in MDCK cells, MTT readout; type: cell-based
[2] = system: MDCK cells (Madin-Darby Canine Kidney Epithelial Cells)

`CCOC(=O)C1=C[C@@H](OC(CC)CC)[C@H](NC(C)=O)[C@@H](N)C1` [Tamiflu, reference compound] was tested, and the Response ([1]; dosage 0.5 mg/mL) was “Inhibition” and the “FU/min (neuraminidase enzymatic activity in presence of medicament)” value (shortened to “FU/min”) ([1]; dosage 0.5 mg/mL) was 0.01 FU/min.

For `CC(C)=CCc1c(O)cc2oc(-c3ccc(O)cc3)c(O)c(=O)c2c1O` [SOFL-EM-8-6C, licoflavonol], the Response ([1]; dosage 0.05 mg/mL) was “Inhibition”, the “FU/min” value ([1]; dosage 0.05 mg/mL) was 0.13 FU/min and the Response ([1]; dosage 0.5 mg/mL) was “Inhibition”. The “FU/min” value ([1]; dosage 0.5 mg/mL) was 0.02 FU/min, the “activity relative to that of Tamiflu” value [1] was “two-fold” and the cell survival rate (influenza virus (H1N1); D1+V: infecting with virus one hour after pretreatment with test drug, 10 μg/mL) was “up to 100%”. For the same molecule, the cell survival rate (influenza virus (H1N1); DV: cells treated simultaneously with test drug and virus, 10 μg/mL) was 75%, the DV (influenza virus (H1N1); MTT absorbance percentage vs mock control, cells treated simultaneously with test drug and virus, dosage 10 μg/mL, MDCK cells, H1N1) was “+++ (>75≦100 as +++)” and the “V1 + D” value (influenza virus (H1N1); MTT absorbance percentage vs mock control, test drug added one hour after adsorption of virus on cell, dosage 10 μg/mL, MDCK cells, H1N1) was “++++ (>100 as ++++)”. For the same molecule, the “D1 + V” value (influenza virus (H1N1); MTT absorbance percentage vs mock control, virus infection one hour after pretreatment with test drug, dosage 10 μg/mL, MDCK cells, H1N1) was “++++ (>100 as ++++)” and the cell survival rate (influenza virus (H1N1); V1+D: test drug added one hour after adsorption of virus on cell, 10 μg/mL) was 100%.

For `NC(=O)c1ncn([C@@H]2O[C@H](CO)[C@@H](O)[C@H]2O)n1` [Ribavirin, reference compound], the “D1 + V” value (influenza virus (H1N1); MTT absorbance percentage vs mock control, […], dosage 9.37 μg/mL, MDCK cells, H1N1) was “+++ (>75≦100 as +++)”.

For `O=c1c(O)c(-c2ccc(O)cc2)oc2cc(O)cc(O)c12` [SOFL-EM-8-6S, kaempferol], the Response ([1]; dosage 0.5 mg/mL) was “Inhibition”, the “FU/min” value ([1]; dosage 0.5 mg/mL) was 0.06 FU/min and the “activity relative to that of Tamiflu” value [1] was “six-fold”. The D [2] was “++++ (key: absorbance percentage≦25 was recorded as +/−; >25≦50 recorded as +; >50≦75 as ++; >75≦100 as +++; >100 as ++++)”, the cell survival rate (influenza virus (H1N1); D1+V: infecting with virus one hour after pretreatment with test drug, 18.75 μg/mL) was “up to 75%” and the “D1 + V” value (influenza virus (H1N1); MTT absorbance percentage vs mock control, virus infection one hour after pretreatment with test drug, dosage 18.75 μg/mL, MDCK cells, H1N1) was “+++ (>75≦100 as +++)”.
